These results are taken from ChEMBL document CHEMBL4673237, “Annulation reaction enables the identification of an exocyclic amide tricyclic chemotype as retinoic acid Receptor-Related orphan receptor gamma (RORγ/RORc) inverse agonists” (Bioorg Med Chem Lett, 2020).

Data set [1] in a line: Metabolic stability in human liver microsomes assessed as parent compound remaining. In kind it is ADME, Microsome. For orientation: Liver microsomes are vesicles of endoplasmic reticulum, rich in cytochrome P450 enzymes.
Data set [2] is described as follows: Metabolic stability in mouse liver microsomes assessed as parent compound remaining. It counts as ADME, Microsome.
Data set [3] deals with T1, Nuclear receptor subfamily 1 group I member 2 (Homo sapiens, UniProt O75469).
T1 sequence (O75469 whole entry): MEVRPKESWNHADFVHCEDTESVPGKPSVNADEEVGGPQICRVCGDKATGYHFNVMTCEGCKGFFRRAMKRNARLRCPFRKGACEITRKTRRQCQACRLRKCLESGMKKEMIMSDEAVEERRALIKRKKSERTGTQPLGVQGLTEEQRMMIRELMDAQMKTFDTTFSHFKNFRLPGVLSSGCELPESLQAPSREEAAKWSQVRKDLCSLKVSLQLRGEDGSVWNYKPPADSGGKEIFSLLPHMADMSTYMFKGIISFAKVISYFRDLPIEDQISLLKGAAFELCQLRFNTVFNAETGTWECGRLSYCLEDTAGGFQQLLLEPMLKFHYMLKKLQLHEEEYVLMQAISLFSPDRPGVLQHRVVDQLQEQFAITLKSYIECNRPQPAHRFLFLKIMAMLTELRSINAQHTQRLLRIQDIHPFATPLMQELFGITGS
As to the kind of experiment: Inhibition of PXR (unknown origin). The conditions noted are these: dose >50 µM.

A further data set addresses T2, Cytochrome P450 1A2 (Homo sapiens, UniProt P05177).
T2 sequence (P05177 whole entry): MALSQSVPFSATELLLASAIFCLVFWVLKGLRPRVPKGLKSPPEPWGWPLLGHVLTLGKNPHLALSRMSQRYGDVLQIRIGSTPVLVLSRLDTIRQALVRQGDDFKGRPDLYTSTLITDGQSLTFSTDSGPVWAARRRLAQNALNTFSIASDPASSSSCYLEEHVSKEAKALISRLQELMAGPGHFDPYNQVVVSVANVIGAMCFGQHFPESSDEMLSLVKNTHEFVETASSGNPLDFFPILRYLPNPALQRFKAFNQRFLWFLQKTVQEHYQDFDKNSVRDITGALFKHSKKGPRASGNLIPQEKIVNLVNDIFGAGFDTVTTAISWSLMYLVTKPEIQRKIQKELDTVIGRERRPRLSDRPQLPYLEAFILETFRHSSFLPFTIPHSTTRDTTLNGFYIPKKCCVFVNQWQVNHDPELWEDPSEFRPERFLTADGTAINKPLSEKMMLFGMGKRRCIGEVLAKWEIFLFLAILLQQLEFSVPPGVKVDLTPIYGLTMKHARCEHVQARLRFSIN
Kind of data set: Inhibition of recombinant CYP1A2 (unknown origin). It counts as ADME. The conditions noted are these: recombinant enzyme, dose >10 µM.

The next data set has as its target T3, Cytochrome P450 2C8 (Homo sapiens, UniProt P10632).
T3 sequence (P10632 whole entry): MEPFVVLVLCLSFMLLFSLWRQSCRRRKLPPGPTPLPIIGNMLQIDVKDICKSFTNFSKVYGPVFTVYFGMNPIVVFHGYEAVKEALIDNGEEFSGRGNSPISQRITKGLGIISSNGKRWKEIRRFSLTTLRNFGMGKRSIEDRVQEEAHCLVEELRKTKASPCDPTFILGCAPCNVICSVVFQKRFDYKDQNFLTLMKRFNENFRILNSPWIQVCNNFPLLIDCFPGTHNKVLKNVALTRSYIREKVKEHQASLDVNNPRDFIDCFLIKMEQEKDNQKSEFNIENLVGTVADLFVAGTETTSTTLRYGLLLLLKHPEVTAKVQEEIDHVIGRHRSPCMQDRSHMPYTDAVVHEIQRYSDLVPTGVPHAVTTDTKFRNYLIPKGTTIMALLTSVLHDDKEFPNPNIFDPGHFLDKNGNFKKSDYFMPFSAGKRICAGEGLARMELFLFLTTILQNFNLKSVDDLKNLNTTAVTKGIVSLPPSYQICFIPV
As to the kind of experiment: Inhibition of recombinant CYP2C8 (unknown origin). In kind it is ADME. The conditions noted are these: recombinant enzyme, dose >10 µM.

In another data set the target is Cytochrome P450 2C9 (Homo sapiens, UniProt P11712). As to the kind of experiment: Inhibition of recombinant CYP2C9 (unknown origin). It counts as ADME. The conditions noted are these: recombinant enzyme, dose >10 µM.
The target in another data set is Cytochrome P450 2C19 (Homo sapiens, UniProt P33261). Kind of data set: Inhibition of recombinant CYP2C19 (unknown origin). It counts as ADME. The conditions noted are these: recombinant enzyme, dose >10 µM.
In a further data set the target is Cytochrome P450 2D6 (Homo sapiens, UniProt P10635). Kind of data set: Inhibition of recombinant CYP2D6 (unknown origin). It counts as ADME. The conditions noted are these: recombinant enzyme, dose >10 µM.
A short description of data set [4]: Metabolic stability in human liver microsomes assessed as half life.
Data set [5] is described as follows: Metabolic stability in mouse liver microsomes assessed as half life.
Data set [6] is described as follows: Permeability from apical side to basolateral side in human Caco-2 cells. In kind it is ADME, cell-based. The conditions noted are these: read-out: permeability. In general terms: Passage across Caco-2 layers is used to estimate intestinal permeability.
Data set [7] can be described thus: Protein binding in human serum assessed as unbound fraction. In kind it is ADME, cell-free.
The nature of data set [8]: Protein binding in mouse serum assessed as unbound fraction. In kind it is ADME, cell-free.

Sequence of Cytochrome P450 2C19 (P33261 whole entry): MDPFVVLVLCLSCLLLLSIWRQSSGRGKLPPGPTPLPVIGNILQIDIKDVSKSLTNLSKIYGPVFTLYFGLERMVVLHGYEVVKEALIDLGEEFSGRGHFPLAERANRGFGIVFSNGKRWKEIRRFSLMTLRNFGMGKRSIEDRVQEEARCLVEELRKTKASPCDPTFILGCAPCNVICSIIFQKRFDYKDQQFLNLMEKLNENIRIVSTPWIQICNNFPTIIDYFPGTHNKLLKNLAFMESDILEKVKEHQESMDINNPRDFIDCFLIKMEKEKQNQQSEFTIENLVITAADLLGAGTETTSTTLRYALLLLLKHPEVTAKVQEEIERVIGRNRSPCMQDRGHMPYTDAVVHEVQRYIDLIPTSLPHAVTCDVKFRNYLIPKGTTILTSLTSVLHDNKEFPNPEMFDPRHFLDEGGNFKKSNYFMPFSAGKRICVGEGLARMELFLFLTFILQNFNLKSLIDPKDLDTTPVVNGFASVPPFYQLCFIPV
Sequence of Cytochrome P450 2D6 (P10635 whole entry): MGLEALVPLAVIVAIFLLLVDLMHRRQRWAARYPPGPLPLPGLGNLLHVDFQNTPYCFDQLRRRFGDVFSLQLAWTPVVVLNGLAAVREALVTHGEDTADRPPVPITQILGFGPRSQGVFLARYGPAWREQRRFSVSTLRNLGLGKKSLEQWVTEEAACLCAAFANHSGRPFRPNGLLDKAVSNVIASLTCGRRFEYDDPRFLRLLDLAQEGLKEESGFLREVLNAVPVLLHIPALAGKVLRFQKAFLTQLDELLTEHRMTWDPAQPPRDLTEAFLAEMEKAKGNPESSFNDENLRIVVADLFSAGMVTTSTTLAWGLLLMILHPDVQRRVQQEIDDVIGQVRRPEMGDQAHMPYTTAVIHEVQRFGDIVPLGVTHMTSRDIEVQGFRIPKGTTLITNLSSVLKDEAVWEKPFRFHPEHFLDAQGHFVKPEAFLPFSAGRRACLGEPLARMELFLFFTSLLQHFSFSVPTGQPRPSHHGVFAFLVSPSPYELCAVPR
Sequence of Cytochrome P450 2C9 (P11712 whole entry): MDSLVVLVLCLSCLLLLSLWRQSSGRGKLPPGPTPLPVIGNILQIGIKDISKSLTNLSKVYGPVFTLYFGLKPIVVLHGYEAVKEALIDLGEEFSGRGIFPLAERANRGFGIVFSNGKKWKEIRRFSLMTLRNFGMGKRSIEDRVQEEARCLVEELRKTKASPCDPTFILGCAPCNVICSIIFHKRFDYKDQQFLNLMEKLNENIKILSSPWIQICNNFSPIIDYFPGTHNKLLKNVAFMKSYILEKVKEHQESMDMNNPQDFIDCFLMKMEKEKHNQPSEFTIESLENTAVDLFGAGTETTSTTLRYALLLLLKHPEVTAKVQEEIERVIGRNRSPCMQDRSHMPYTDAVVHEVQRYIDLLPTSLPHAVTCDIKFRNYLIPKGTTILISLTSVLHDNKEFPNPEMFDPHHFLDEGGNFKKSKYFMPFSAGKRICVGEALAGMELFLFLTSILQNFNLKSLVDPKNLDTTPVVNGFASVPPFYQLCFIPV

Consider `O=C(NCC1(O)CCCCC1)[C@@H]1CC[C@@]2(S(=O)(=O)c3ccc(F)cc3)c3ccc(C(F)(C(F)(F)F)C(F)(F)F)cc3CC[C@@H]12`, for which the Stabilty in data set [1] stood at 5%; in [2] it was 38%.
With `C[C@H](CO)NC(=O)[C@@H]1CC[C@@]2(S(=O)(=O)c3ccc(F)cc3)c3ccc(C(F)(C(F)(F)F)C(F)(F)F)cc3CC[C@@H]12`, the Stabilty in data set [1] is 46%; in [2] it was 39%.
Taken in the same sequence, the figures for `O=C(NCC1(O)CCCC1)[C@@H]1CC[C@@]2(S(=O)(=O)c3ccc(F)cc3)c3ccc(C(F)(C(F)(F)F)C(F)(F)F)cc3CC[C@@H]12` were 22% and 41%.
The half-life is the time in which the quantity being followed falls by half. Regarding `CC(C)(O)CNC(=O)[C@@H]1CC[C@@]2(S(=O)(=O)c3ccc(F)cc3)c3ccc(C(F)(C(F)(F)F)C(F)(F)F)cc3CC[C@@H]12`, the results for the Stabilty in data set [1] and in data set [2] were 99% and 77%, respectively. Also, the INH in [3] was above 50 µM; at Cytochrome P450 1A2, above 10 µM; at Cytochrome P450 2C8, above 10 µM; on Cytochrome P450 2C9 it was above 10 µM; at Cytochrome P450 2C19, above 10 µM; at Cytochrome P450 2D6 it was above 10 µM. The half-life in data set [4] amounted to 1.35 h; in data set [5] it was 0.683 h. In addition, the Papp A→B in data set [6] worked out at 15 ×10⁻⁶ cm/s. Besides, the Fu came out at 0.5% in [7] and 0.4% in [8].
Consider `C[C@H](O)CNC(=O)[C@@H]1CC[C@@]2(S(=O)(=O)c3ccc(F)cc3)c3ccc(C(F)(C(F)(F)F)C(F)(F)F)cc3CC[C@@H]12`, for which the Stabilty in [1] came out at 34%; in [2] it was 41%.
Taken in the same sequence, the figures for `C[C@@H](CO)NC(=O)[C@@H]1CC[C@@]2(S(=O)(=O)c3ccc(F)cc3)c3ccc(C(F)(C(F)(F)F)C(F)(F)F)cc3CC[C@@H]12` were 53% and 55%.
In the same order, the values of `O=C(NCC1(O)CCC1)[C@@H]1CC[C@@]2(S(=O)(=O)c3ccc(F)cc3)c3ccc(C(F)(C(F)(F)F)C(F)(F)F)cc3CC[C@@H]12` are 74% and 57%.
As to `O=C(NC[C@H](O)C(F)(F)F)[C@@H]1CC[C@@]2(S(=O)(=O)c3ccc(F)cc3)c3ccc(C(F)(C(F)(F)F)C(F)(F)F)cc3CC[C@@H]12`, the Stabilty in data set [1] and in [2] was 100% throughout.
As for `C[C@@H](O)CNC(=O)[C@@H]1CC[C@@]2(S(=O)(=O)c3ccc(F)cc3)c3ccc(C(F)(C(F)(F)F)C(F)(F)F)cc3CC[C@@H]12`, the Stabilty was 56% in data set [1] and 51% in data set [2].
In the same order, the values of `CC(C)(O)C(C)(C)NC(=O)[C@@H]1CC[C@@]2(S(=O)(=O)c3ccc(F)cc3)c3ccc(C(F)(C(F)(F)F)C(F)(F)F)cc3CC[C@@H]12` are 75% and 14%.
Taken in the same sequence, the figures for `O=C(NCC1(O)CC1)[C@@H]1CC[C@@]2(S(=O)(=O)c3ccc(F)cc3)c3ccc(C(F)(C(F)(F)F)C(F)(F)F)cc3CC[C@@H]12` were 19% and 26%.
In the same order, the values of `O=C(NCCO)[C@@H]1CC[C@@]2(S(=O)(=O)c3ccc(F)cc3)c3ccc(C(F)(C(F)(F)F)C(F)(F)F)cc3CC[C@@H]12` are 86% and 78%.
